{"source": "paper PMC6492175", "about": "“Glio‐ and neuro‐protection by prosaposin is mediated by orphan G‐protein coupled receptors GPR37L1 and GPR37” (Glia, 2018)", "molecules": {"B1": {"name": "Sap C: Saposin C, fragment of prosaposin (protein, UniProt P07602 311-390, looked up)", "Saposin-C": "SDVYCEVCEFLVKEVTKLIDNNKTEKEILDAFDKMCSKLPKSLSEECQEVVDTYGSSILSILLEEVSPELVCSMLHLCSG", "modifications": "Saposin-C", "notes": "Saposin C, fragment of prosaposin"}, "B2": {"name": "PSAP: prosaposin, neurotrophic factor, precursor of Saposin C (protein)", "chain": "SPVLGLRECTRGSAVWCQNVKTAADCGAVQHCLQTVWSKPTVKSLPCDICKDVITAAGNLLKDNATEQEILMYLERTCDWLPKPNMSASCKEIVDSYLPVILDMIKGQMSHPGEVCSALNLCESLQKHLAELNHQKQLESNQIPELDMAEVVAPFMANIPFLLYPQDGSHSKPQPKKANGNVCQDCIQLVTDVQEALRTNSTFVEALVDHAKEECDRLGPGMSDMCKNYINQYSEVAIQMVMHMQPKEICVLAGFCDEVKEMPMKTLVPAEVVSENVIPALGLVEPIKKDPAPAKADIYCEVCEFVVKEVAKLIDNNRTEEEILHALDKVCSKLPTSLAEQCQEVVDTYGSSILSILLDEASPELVCSMLHLCSSRGLPAATVRVMPRKDGGFCEVCKKLVGYLDRNLEKNSTKEQILAALEKGCSFLPDQYRKQCDQFVTEYEPVLIEILVEVMDPSFVCLKIGACPAAHKPLLGAEKCVWGPSYWCQNMESAALCNAVEHCRRHVWN"}}, "key": {"astrocytes [1]": {"tested_on": "astrocytes", "assay": "DAPI staining, astrocyte cell number", "assay_type": "cell-based, Wistar rat", "details": "for cell numbers (DAPI) vs control: n = 4, triplicates, Dunnett's", "protocol": "Astrocytes were seeded in 96‐well plate (1 × 10^4 per well) and fixed in 4% paraformaldehyde for 5 min, washed in PBS three times for 5 min each time before and after incubating with 1 μg/mL DAPI for 10 min. Round and whole nuclei in nine fields of view per well were counted using ImageJ (NIH, Bethesda, MD)."}, "astrocytes [2]": {"tested_on": "astrocytes", "assay": "Scratch wound assay (astrocyte migration)", "assay_type": "cell-based, Wistar rat", "details": "for wound closure: monitored 72 hr, n = 5, triplicates; for ability of astrocytes to close the wound: PDM, n = 6, triplicates", "protocol": "A wound recovery assay was carried out to analyze the migration of astrocytes using the IncuCyte system (Essen BioScience Inc., Ann Arbor, MI). Primary astrocytes were seeded in ImageLock 96‐well plates (4,379, Essen BioScience) at a density of 4 × 10^4 per well. After 24 hr, standardized and reproducible (700–800 μm wide) scratch “wounds” were created in all wells using a dedicated device. Cultures were exposed to different testing conditions, for example, stressors, and were maintained and imaged at hourly intervals up to 72 hr.\nCell density was measured in the scratch area and compared to undisrupted adjacent monolayer. Relative wound density (%), a measure of wound recovery, was calculated using the formula: Relative wound density (%) = (Density of wound region at certain time point – Initial density of wound region)/(Density of intact cell region at certain time point − Initial density of wound) × 100%."}, "primary astrocytes": {"tested_on": "primary astrocytes", "details": "5 hr, LDH 24 hr later, PDM", "procedure": "Primary cultures of astrocytes were prepared from the cerebral cortices, cerebellum, and brainstem from Wistar rat pups (P2) following protocols described previously (1–3). Briefly, the brains of Wistar P2 pups were dissected out, crudely cross‐chopped and bathed in a solution containing HBSS, DNase I (0.04 mg/mL), trypsin from bovine pancreas (0.25 mg/mL) and BSA (3 mg/mL). The preparation was agitated at 37 °C for 15 min. Trypsinization of the brain tissue was terminated by the addition of equal volumes of culture media comprised of DMEM, 10% heat‐inactivated FBS, 100 U/mL penicillin, and 0.1 mg/mL streptomycin and then centrifuged at 2000 rpm, at room temperature (RT) for 10 min. The supernatant was aspirated, and the remaining pellet was resuspended in 15 mL HBSS containing BSA (3 mg/mL) and DNase I (0.04 mg/mL) and triturated gently. After the cell debris had settled, the cell suspension was filtered through a 40‐μm cell strainer (BD Falcon, BD Biosciences, Franklin Lakes, NJ) and cells were collected after centrifugation. Cells were seeded in a T75 flask containing culture media (see above) and maintained at 37 °C with 5% CO2. Once the cultures reached confluence and 1 week later, the flasks were mildly shaken overnight to remove microglia and oligodendrocytes. When astrocytes were seeded for experiments, media was changed to DMEM supplemented with 5% FBS instead of 10% FBS.\nLactate dehydrogenase (LDH) release from damaged cells was assessed colorimetrically with LDH Cytotoxicity Assay Kit (Pierce) according to the manufacturer's instructions. Activity is proportional to colorimetric reduction of tetrazolium salt measured at 490 nm. Cytotoxicity was normalized to maximal LDH activity as released from cells acutely exposed to Triton X‐100, and calculated using the formula: % Cytotoxicity = (Compound‐treated LDH activity – Spontaneous LDH activity)/(Maximum LDH activity – Spontaneous LDH activity) × 100%.\nThe media was then replaced by fresh PDM with or without TX14(A). Cells were incubated for a further 24 hr before carrying out the LDH reaction on 50 μL of media."}, "[3]": {"target": "GPR37L1 (rat, endogenous in astrocytes) (rat (endogenous in primary astrocytes)) (UniProt Q9QYC5)", "sequence (Q9QYC5 25-481)": "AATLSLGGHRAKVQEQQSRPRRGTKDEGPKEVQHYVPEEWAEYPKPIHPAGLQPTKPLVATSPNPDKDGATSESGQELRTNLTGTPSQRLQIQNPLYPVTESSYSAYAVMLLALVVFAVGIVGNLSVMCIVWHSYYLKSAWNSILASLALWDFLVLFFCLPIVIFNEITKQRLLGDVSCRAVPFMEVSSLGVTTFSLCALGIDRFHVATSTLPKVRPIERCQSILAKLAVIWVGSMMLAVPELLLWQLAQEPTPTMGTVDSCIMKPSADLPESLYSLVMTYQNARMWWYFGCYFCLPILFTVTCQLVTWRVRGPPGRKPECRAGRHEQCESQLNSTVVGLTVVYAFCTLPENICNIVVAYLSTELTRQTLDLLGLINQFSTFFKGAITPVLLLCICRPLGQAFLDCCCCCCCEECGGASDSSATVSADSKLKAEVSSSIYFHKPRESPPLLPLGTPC"}, "[4]": {"target": "GPR37 (rat, endogenous in astrocytes) (rat (endogenous in primary astrocytes)) (UniProt Q9QYC6)", "sequence (Q9QYC6 27-603)": "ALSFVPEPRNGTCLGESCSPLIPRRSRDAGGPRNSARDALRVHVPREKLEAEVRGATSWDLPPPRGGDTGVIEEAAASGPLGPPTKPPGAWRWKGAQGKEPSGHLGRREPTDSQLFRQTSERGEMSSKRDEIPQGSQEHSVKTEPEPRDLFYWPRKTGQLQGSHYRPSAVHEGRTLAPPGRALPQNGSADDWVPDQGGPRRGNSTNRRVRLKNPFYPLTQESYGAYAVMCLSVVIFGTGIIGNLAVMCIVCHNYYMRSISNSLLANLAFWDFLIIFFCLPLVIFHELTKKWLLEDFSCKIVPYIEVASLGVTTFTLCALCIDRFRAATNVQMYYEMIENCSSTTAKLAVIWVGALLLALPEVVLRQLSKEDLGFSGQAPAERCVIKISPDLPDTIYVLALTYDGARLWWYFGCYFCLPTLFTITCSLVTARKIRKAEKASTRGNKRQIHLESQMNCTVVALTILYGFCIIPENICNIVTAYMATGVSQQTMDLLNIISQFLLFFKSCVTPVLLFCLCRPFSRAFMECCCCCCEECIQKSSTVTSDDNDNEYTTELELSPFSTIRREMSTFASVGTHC"}, "GPR37L1/GPR37": {"tested_on": "GPR37L1/GPR37", "assay": "Luminescence-based GloSensor cAMP assay in astrocytes", "assay_type": "cell-based, Wistar rat", "details": "NKH477 1 μM, rat astrocytes", "protocol": "The GloSensor assay uses genetically encoded biosensor variants with cAMP binding domains fused to mutant forms of Photinus pyralis luciferase. The luminescence of the reporter increases directly proportionally to the amount of cAMP present. Astrocytes were seeded in 96‐well plates and transduced with an AVV bearing the CMV‐driven GLO22F at multiplicity of infection (MOI) 10. After 24 hr transduction, media was exchanged for 100 μL HEPES‐buffered HBSS (pH 7.6). Cells were then incubated with 0.731 mM beetle luciferin for 2 hr in the dark. After baseline reading, NKH477 and/or TX14(A) were added to the wells and incubated for 20 min. Luminescence measurements were obtained using a Tecan microplate reader (Infinite M200 PRO)."}, "PSAP": {"tested_on": "PSAP", "assay": "Immunodetection (Western blot) of PSAP in neuron-astrocyte co-culture media", "assay_type": "cell-based, Wistar rat", "details": "H2O2 stress applied to neurons, Figure S9"}, "neuroblastoma NS20 line [5]": {"target": "neuroblastoma NS20 line", "parameters": "method as in O'Brien et al., 1994", "details": "radio-labeled Sap C, ref O'Brien et al., 1994, read-out: Kd of specific binding; cited from earlier work"}, "receptor of ~54 kDa": {"tested_on": "receptor of ~54 kDa", "details": "ref Hiraiwa et al., 1997; cited from earlier work"}, "neuroblastoma NS20 line [6]": {"tested_on": "neuroblastoma NS20 line", "parameters": "method as in O'Brien et al., 1994", "details": "ref O'Brien et al., 1994; cited from earlier work"}, "gerbils": {"tested_on": "gerbils", "parameters": "method as in Sano et al., 1994", "details": "recombinant, chronic icv infusion, ref Sano et al., 1994; cited from earlier work"}}, "note": "Where two headings read alike, the source gives them in different places."}
{"molecule": "O=C(Nc1ncnc2c1ncn2[C@@H]1O[C@@H]2COP(=O)(O)O[C@H]2[C@H]1O)c1ccccc1", "note": "[6‐BenZ‐cAMP]", "values": [{"measurement": "cell numbers (DAPI) vs control", "setting": "astrocytes [1]; 6-BenZ-cAMP 500 μM", "value": "significantly decreased cell numbers as compared to control"}, {"measurement": "wound closure", "setting": "astrocytes [2]; 6-benz-cAMP 250–1,000 μM, concentration-dependent", "value": "greatly slowed down wound closure"}]}
{"molecule": "CN[C@@H]1C[C@H]2O[C@@](C)([C@@H]1OC)n1c3ccccc3c3c4c(c5c6ccccc6n2c5c31)C(=O)NC4", "note": "[staurosporine]", "values": [{"measurement": "cytotoxicity (LDH release)", "setting": "primary astrocytes; staurosporine 200 nM", "value": "comparable degree of cytotoxicity"}, {"measurement": "ability of astrocytes to close the wound", "setting": "astrocytes [2]; staurosporine, 5 hr pre-exposure, 48 hr", "value": "drastically inhibited their ability to close the wound"}]}
{"molecule": "prosaptide TX14(A) (peptide)", "values": [{"measurement": "inhibition of NKH477 (1 μM)-raised cAMP in rat astrocytes, GloSensor luminescence, concentration-response of TX14(A); obliterated by combined knock-down of GPR37L1 and GPR37", "setting": "[3]", "value": 17.8, "unit": "nM"}, {"measurement": "percent inhibition of NKH477-mediated cAMP production in rat astrocytes at the maximal concentration of TX14(A) used (200 nM), GloSensor", "setting": "[3]", "value": 40, "unit": "%"}, {"measurement": "inhibition of NKH477 (1 μM)-raised cAMP in rat astrocytes, GloSensor luminescence, concentration-response of TX14(A); obliterated by combined knock-down of GPR37L1 and GPR37", "setting": "[4]", "value": 17.8, "unit": "nM"}, {"measurement": "percent inhibition of NKH477-mediated cAMP production in rat astrocytes at the maximal concentration of TX14(A) used (200 nM), GloSensor", "setting": "[4]", "value": 40, "unit": "%"}]}
{"molecule": "C=C[C@@]1(C)CC(=O)[C@]2(O)[C@@]3(C)[C@@H](O)CCC(C)(C)[C@@H]3[C@H](OC(=O)CCN(C)C)[C@H](OC(C)=O)[C@@]2(C)O1.Cl", "note": "[NKH477]", "values": [{"measurement": "increase of baseline cAMP levels", "setting": "GPR37L1/GPR37", "value": "~ 20 fold"}, {"measurement": "cell numbers (DAPI) vs control", "setting": "astrocytes [1]; NKH477 10 μM", "value": "significantly decreased cell numbers as compared to control"}]}
{"molecule": "C=C(C)[C@H]1Cc2c(ccc3c2O[C@@H]2COc4cc(OC)c(OC)cc4[C@@H]2C3=O)O1", "note": "[rotenone]", "values": [{"measurement": "cytotoxicity (LDH release)", "setting": "primary astrocytes; rotenone 100 μM", "value": "comparable degree of cytotoxicity"}]}
{"molecule": "CO[C@@H]1[C@@H]2OP(=O)(O)OC[C@H]2O[C@H]1n1c(Sc2ccc(Cl)cc2)nc2c(N)ncnc21", "note": "[8‐pCPT‐2′‐O‐Me‐cAMP]", "values": [{"measurement": "cell numbers (DAPI) vs control", "setting": "astrocytes [1]; 8-pCPT-2′-O-Me-cAMP 1,000 μM", "value": "significantly decreased cell numbers as compared to control"}, {"measurement": "wound closure", "setting": "astrocytes [2]; 8-pCPT-2′-O-Me-cAMP 250–1,000 μM", "value": "had no effect"}]}
{"molecule": "OO", "note": "[H2O2]", "values": [{"measurement": "PSAP in co-culture media", "setting": "PSAP", "value": "increase in PSAP in co‐culture media in response to H2O2 stress"}, {"measurement": "cytotoxicity (LDH release)", "setting": "primary astrocytes; H2O2 250 μM", "value": "comparable degree of cytotoxicity"}, {"measurement": "ability of astrocytes to close the wound", "setting": "astrocytes [2]; H2O2, 5 hr pre-exposure, 48 hr", "value": "drastically inhibited their ability to close the wound"}]}
{"molecule": "B1", "values": [{"measurement": "Kd", "setting": "neuroblastoma NS20 line [5]", "value": 0.019, "unit": "nM"}, {"measurement": "interaction with receptor (molecular mass)", "setting": "receptor of ~54 kDa", "value": "interacts with a receptor of ~54 kDa"}, {"measurement": "neurotrophic activity", "setting": "neuroblastoma NS20 line [6]", "value": "identified as neurotrophic factors"}]}
{"molecule": "B2", "values": [{"measurement": "ischemia-induced learning deficits and neuronal loss", "setting": "gerbils", "value": "almost completely prevented ischemia‐induced learning deficits and neuronal loss"}, {"measurement": "neurotrophic activity", "setting": "neuroblastoma NS20 line [6]", "value": "identified as neurotrophic factors"}, {"measurement": "number of cells in cultures (DAPI)", "setting": "astrocytes [1]; TX14(A) 100 nM in PDM, or PSAP depletion, n = 15", "value": "neither depletion of PSAP nor addition of TX14(A) affected the number of cells in cultures"}, {"measurement": "wound closure after PSAP depletion", "setting": "astrocytes [2]; PSAP depleted by immunoadsorption vs FBS-containing media, 48 hr", "value": "drastically slowed down by PSAP depletion"}]}
